The values below come from publication PMC8141582, “Synergistic Effect of Statins and Abiraterone Acetate on the Growth Inhibition of Neuroblastoma via Targeting Androgen Receptor” (Frontiers in Oncology, 2021).

The test system of assay [1] is SNU-5 cells. Details: method as in Supplement [6]; key: Positive: Simvastatin alone inhibited the progression of cancer; Negative: Simvastatin alone could not inhibit the progression of cancer. As to conditions: Gastric Cancer, 2.1 mg/kg/day, i.p.; ref Supplement [6]; cited from earlier work.
In assay [2] the test system is N2a cells. Description: MTT cell viability assay, N2a. Format: cell-based, mouse. The following applies: Mus musculus. The method, then: N2a, SH-SY5Y, SK-N-BE (2), 10A, HUVEC, HL7702 cells were plated in 96-well plates at 8,000 cells/well, respectively, in complete media in triplicate wells for each dose and cultured for 18 h. The neuroblastoma cell lines, N2a, SH-SY5Y, and SK-N-BE (2), and non-cancer cell lines, 10A, HUVEC, and HL7702, were treated with simvastatin and fluvastatin in a range of doses from 0 to 20 μM and with AA from 0 to 30 μM; N2a, SH-SY5Y SK-N-BE (2), were treated with rosuvastatin in a range of doses from 0 to 100 μM for 72 h. Statins dissolved in DMSO and AA dissolved in ethanol. After 72 h treatment, the medium was added 0.5 mg/ml MTT reagent and incubated at 37°C for 4 h. Subsequently, the supernatant was aspirated, and cells were lysed in 150 µl DMSO, then shaken 10 min at 37°C. The optical density (OD) was measured at 570 and 630 nm using a plate reader.
Background: Tetrazolium dyes change colour on reduction, which living cells bring about.

For assay [3], the system named is Panc-1 cells from the primary tumors. More on the design: method as in Supplement [9]; key: Positive: Simvastatin alone inhibited the progression of cancer; Negative: Simvastatin alone could not inhibit the progression of cancer. As to conditions: Pancreatic Ductal Adenocarcinoma, 20.0 mg/kg/day, i.p.; ref Supplement [9]; cited from earlier work.
The test system of assay [4] is A498 cells. Details: method as in Supplement [14]; key: Positive: Simvastatin alone inhibited the progression of cancer; Negative: Simvastatin alone could not inhibit the progression of cancer. The following applies: Renal Cancer, 5.0 mg/kg/day, oral; ref Supplement [14]; cited from earlier work.
The test system of assay [5] is U87MG. Details: method as in Supplement [1]; key: Positive: Simvastatin alone inhibited the progression of cancer; Negative: Simvastatin alone could not inhibit the progression of cancer. The following applies: Glioma, 2.5 mg/kg/day, s.c.; ref Supplement [1]; cited from earlier work.
Assay [6] has as its system 22RV1 cells. More on the design: key to Results (simvastatin alone): Positive: Simvastatin alone inhibited the progression of cancer; Negative: Simvastatin alone could not inhibit the progression of cancer. The following applies: Prostate Cancer, 25.0 mg/kg/day, i.p.; ref Supplement [15]; cited from earlier work.
The subject of assay [7] is A549 cells. Details: method as in Supplement [5]; key: Positive: Simvastatin alone inhibited the progression of cancer; Negative: Simvastatin alone could not inhibit the progression of cancer. As to conditions: Lung Adenocarcinoma, 10.0 mg/kg/day, i.v; ref Supplement [5]; cited from earlier work.
Assay [8] has as its system HL7702 cells. Kind of assay: MTT cell viability assay, HL7702. Format: cell-based. The following applies: Homo sapiens, L02, normal cell line, 72 h. The method, then:
Statins dissolved in DMSO and AA dissolved in ethanol. After 72 h treatment, the medium was added 0.5 mg/ml MTT reagent and incubated at 37°C for 4 h. Subsequently, the supernatant was aspirated, and cells were lysed in 150 µl DMSO, then shaken 10 min at 37°C. The optical density (OD) was measured at 570 and 630 nm using a plate reader.

Assay [9] has as its system KHOS or NP cells. Details: method as in Supplement [24]; key: Positive: Simvastatin alone inhibited the progression of cancer; Negative: Simvastatin alone could not inhibit the progression of cancer. As to conditions: Osteosarcoma, 10.0 mg/kg, route unknown; ref Supplement [24]; cited from earlier work.
For assay [10], the system named is HLMC cells from the primary patients. Details: method as in Supplement [4]; key: Positive: Simvastatin alone inhibited the progression of cancer; Negative: Simvastatin alone could not inhibit the progression of cancer. As to conditions: Lung Carcinoma, 50.0 mg/kg/day, oral; ref Supplement [4]; cited from earlier work.
In assay [11] the test system is HCT116 p53 +/+ or p53 -/- cells. More on the design: method as in Supplement [12]; key: Positive: Simvastatin alone inhibited the progression of cancer; Negative: Simvastatin alone could not inhibit the progression of cancer. As to conditions: Colorectal Cancer, 20.0 mg/kg/day, i.p.; ref Supplement [12]; cited from earlier work.
The subject of assay [12] is SH-SY5Y xenografts. Description: SH-SY5Y tumor xenograft study. Format: in vivo, BALB/c nude mice. The following applies: Sim 20 mg/kg, oral daily. The source says: Four weeks old BALB/c nude mice of both sexes were purchased from Vital River Laboratory Animal Technology Co., Ltd. (Beijing, China) and maintained under specific pathogen-free conditions. Male mice were castrated 5 days before cell inoculation. […] Then, all the mice were divided randomly into four groups: control group (Placebo, n = 7), simvastatin group (Sim, n = 6), abiraterone acetate group (AA, n = 6), and combination group (Com, n = 6) including three male mice in each group. […] AA 150 mg/kg/day; combined simvastatin 10 mg/kg/day with AA 75 mg/kg/day. Tumor was harvested after 10 days of dosing, then fixed half of a tumor in 4% buffered formaldehyde for IHC and the other half was stored −80°C for RT-PCR and Western Blots analysis.

On to `CCC(C)(C)C(=O)O[C@H]1C[C@@H](C)C=C2C=C[C@H](C)[C@H](CC[C@@H]3C[C@@H](O)CC(=O)O3)[C@H]21` [Simvastatin], for which the “Results (simvastatin alone)” value in [1], in assay [3], in assay [4], in [5], in [6] and in [7] was “Positive” each time. The “Results (simvastatin alone)” value in assay [9], in assay [10] and in assay [11] was “Positive” in each case. Moreover, the IC50 in [2] (N2a, NB cell line, MTT, 72 h) was 6.07 µM; in [8], 20.6 µM. The inhibition at 1.5 µM in assay [2] (N2a cells, 1.5 μM simvastatin, read-out: inhibition rate) was about 10%. Moreover, the tumor growth entry in assay [12] is “tumor growth delay”.

For orientation: IC50 means the midpoint of a concentration-inhibition curve. Broadly, the inhibition is how much of the control response was suppressed.
